Experimental data published in ChEMBL document CHEMBL4007394, “Type I DNA Topoisomerases” (J Med Chem, 2017).

Tests used:
[1] = Inhibition of recombinant Streptococcus pneumoniae R6 topoisomerase-1 expressed in Escherichia coli assessed as reduction in enzyme-catalyzed relaxation of supercoiled pBR322 DNA preincubated for 10 mins by ethidium bromide staining based electrophoresis
[2] = target: Bifunctional 3'-5' exonuclease/ATP-dependent helicase WRN (Homo sapiens, UniProt Q14191); assay: Inhibition of recombinant WRN (unknown origin) helicase activity expressed in baculovirus expression system using forked duplex DNA as substrate after 15 mins by polyacrylamide gel electrophoresis
Chain of Bifunctional 3'-5' exonuclease/ATP-dependent helicase WRN (Q14191 whole entry): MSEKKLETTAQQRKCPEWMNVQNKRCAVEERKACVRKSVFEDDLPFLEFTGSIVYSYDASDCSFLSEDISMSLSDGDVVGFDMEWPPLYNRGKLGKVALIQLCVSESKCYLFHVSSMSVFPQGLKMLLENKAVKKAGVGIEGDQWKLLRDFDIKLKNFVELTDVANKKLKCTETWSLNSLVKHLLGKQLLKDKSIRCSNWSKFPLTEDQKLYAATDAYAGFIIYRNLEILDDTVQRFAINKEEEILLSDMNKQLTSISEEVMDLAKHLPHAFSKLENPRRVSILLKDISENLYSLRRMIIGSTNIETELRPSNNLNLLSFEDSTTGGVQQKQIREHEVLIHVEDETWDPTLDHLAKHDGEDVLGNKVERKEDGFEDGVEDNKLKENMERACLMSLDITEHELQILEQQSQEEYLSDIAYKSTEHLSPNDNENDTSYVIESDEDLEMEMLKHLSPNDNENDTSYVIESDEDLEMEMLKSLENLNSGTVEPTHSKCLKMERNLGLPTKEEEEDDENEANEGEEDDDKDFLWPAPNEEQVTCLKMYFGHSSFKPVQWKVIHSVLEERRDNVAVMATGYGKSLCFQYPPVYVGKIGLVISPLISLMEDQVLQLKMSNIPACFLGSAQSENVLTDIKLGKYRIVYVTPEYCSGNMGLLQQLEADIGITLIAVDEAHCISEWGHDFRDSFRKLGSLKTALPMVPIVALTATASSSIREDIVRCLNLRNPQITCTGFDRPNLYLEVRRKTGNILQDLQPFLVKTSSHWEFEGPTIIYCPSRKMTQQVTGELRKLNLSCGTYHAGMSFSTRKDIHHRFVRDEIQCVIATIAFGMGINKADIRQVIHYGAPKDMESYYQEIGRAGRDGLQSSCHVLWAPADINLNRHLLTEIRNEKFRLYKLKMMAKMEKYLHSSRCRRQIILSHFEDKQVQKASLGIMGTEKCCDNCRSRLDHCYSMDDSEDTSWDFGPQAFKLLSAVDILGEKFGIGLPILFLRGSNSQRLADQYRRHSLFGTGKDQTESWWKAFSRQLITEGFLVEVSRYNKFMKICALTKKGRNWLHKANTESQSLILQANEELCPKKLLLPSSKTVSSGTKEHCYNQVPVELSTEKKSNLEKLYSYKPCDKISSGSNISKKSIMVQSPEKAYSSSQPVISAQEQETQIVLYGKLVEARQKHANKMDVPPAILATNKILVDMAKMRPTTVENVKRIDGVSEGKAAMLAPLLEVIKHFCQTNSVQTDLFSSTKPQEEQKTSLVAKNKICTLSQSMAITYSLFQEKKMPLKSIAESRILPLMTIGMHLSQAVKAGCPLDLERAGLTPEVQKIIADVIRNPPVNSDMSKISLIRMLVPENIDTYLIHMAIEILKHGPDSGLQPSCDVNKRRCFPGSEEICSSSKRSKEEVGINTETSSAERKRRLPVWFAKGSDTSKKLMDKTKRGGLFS

IC50 [2] [µM]	SMILES	IC50 [1] [µM]
–	CNCCc1cc2c(c3c1ccc1cc4c(cc13)OCO4)OCO2	17
3	CCC(=O)OCN1C(=O)C=CC1=O	–
